In one test the test system is OT-I and OT-II T cells. Description: OT-I and OT-II in vitro T-cell stimulation. The settings on record: OVA-loaded BMDCs pretreated with stimulus, FIG. 1F. It counts as cell-based, mouse. On the procedure:
OT-I and OT-II in vitro T-cell stimulation: Splenic CD8+ and CD4^+ T cells were sorted from OT-I and OT-II mice by magnetic cell sorting with anti-CD8 beads or anti-CD4 beads respectively (Miltenyi Biotech). Sorted T cells were then seeded in 96-well plates at a concentration of 100.000 cells per well in the presence of either 20.000 or 10.000 DCs (5:1 or 10:1 ratio) that were pretreated with either LPS (activation stimuli) or LPS+PGPC (hyperactivation stimuli) or LPS+Alum (pyroptotic stimuli) and pulsed (or not) with OVA protein or SIINFEKL (SEQ ID NO: 1) peptide at 100 μg/ml for 2 hours. 5 days post culture, supernatants were collected and clarified by centrifugation for short-term storage at −20° C. and cytokine measurement by ELISA.
Intracellular staining: For intracellular cytokine staining, cells were stimulated with 50 ng/ml phorbol 12-myristate 13-acetate (PMA) and 500 ng/ml ionomycin (Sigma-Aldrich) in the presence of GolgiStop (BD) and brefeldin A for 4-5 h. Cells were then washed twice with PBS, and stained with LIVE/DEAD™ Fixable violet or green Dead Cell Stain Kit (Molecular probes) in PBS for 20 min at 4° C. Cells were washed with MACS buffer, and stained for appropriate surface markers for 20 min at 4° C. […] Data were analyzed using FlowJo software.

Test [1] concerns antigen-specific T cell responses. Nature of the test: In vivo OVA immunization and T cell re-stimulation. Further details: species or system C57BL/6J mice. On the procedure: Flow cytometry: After FcR blockade, 7 days BMDCs were resuspended in MACS buffer (PBS with 1% FCS and 2 mM EDTA), and stained with the following fluorescently conjugated antibodies (BioLegend): anti-CD11c (clone N418), anti-I-A/I-E (clone M5/114.15.2), anti-CD40 (clone 3/23), anti-CD80(16-10A1), anti-CD69 clone (H1.2F3), anti-H-2Kb (clone AF6-88.5). Single cell suspension from the tumor or draining inguinal lymph nodes, or skin inguinal adipose tissue were resuspended in MACS buffer (PBS with 1% FCS and 2 mM EDTA), and stained with the following fluorescently conjugated antibodies (BioLegend): anti-CD8a (clone 53-6.7), anti-CD4 (clone RM4-5), anti-CD44 (clone IM7), anti-CD62L (MEL-14), anti-CD3 (17A2), anti-CD103 (2E7), anti-CD69 clone (H1.2F3), anti-CD45 (A20 or 30F11). LIVE/DEAD™ Fixable Violet Dead Cell Stain Kit (Molecular probes) was used to determine the viability of cells, and cells were stained for 20 minutes in PBS at 4° C. Draining inguinal lymph nodes T cells were stained with OVA-peptide tetramers at room temperature for 1 h. PE-conjugated H2K(b) SIINFEKL (OVA 257-264; SEQ ID NO: 1) and APC conjugated I-A(b) AAHAEINEA (OVA 329-337; SEQ ID NO: 2) were used. I-A(b) and H2K(b) associated with CLIP peptides were used as isotype controls. […] Data were analyzed using FlowJo software.
Intracellular staining: For intracellular cytokine staining, cells were stimulated with 50 ng/ml phorbol 12-myristate 13-acetate (PMA) and 500 ng/ml ionomycin (Sigma-Aldrich) in the presence of GolgiStop (BD) and brefeldin A for 4-5 h. […] Data were analyzed using FlowJo software.
In vivo immunization and T cell re-stimulation: Female C57BL/6J mice aged 8 weeks, were immunized subcutaneously (s.c.) on the left lower back with either 150 μg/mouse endotoxin-free OVA plus 10 μg/mouse LPS emulsified in incomplete Freund's adjuvant, or with 150 μg/mouse endotoxin-free OVA, plus 65 μg/mouse oxPAPC or PGPC, plus 10 μg/mouse LPS emulsified in incomplete Freund's adjuvant. […] Secretion of IFNγ, IL-10 and IL-2 were measured by ELISA 5 days later. […]

The test system of another test is BMDCs. To be noted: prior work (Zanoni et al., 2016); cited from earlier work.
The next test has as its system B16OVA cells. Description: Immunization prior to tumor inoculation, B16OVA challenge. To be noted: s.c. immunization with B16OVA WTL, challenge 15 days later. The test is classed as in vivo, C57BL/6 mice. The procedure:
Whole tumor cell lysates preparation: To prepare whole tumor cell lysates (WTL) for immunization, tumor cell lines were cultured for 4-5 days in complete DMEM. When cells became confluent, supernatants were collected, and the cells were washed and dissociated using trypsin-EDTA (Gibco). Tumor cell lines were then resuspended at 5×10^6 cells/ml in their collected culture supernatant, then lysed by 3 cycles of freeze-thawing.
In vivo immunization and tumor challenges: For immunization prior tumor inoculation, C57BL/6 mice were injected subcutaneously (s.c.) into the right flank with PBS (unimmunized), WTL alone or with LPS, or WTL plus LPS and OxPAPC or PGPC all emulsified in incomplete Freud's adjuvant (IFA). In some experiments, LPS is replaced by MPLA. […] Tumor-free mice were re-challenged s.c. into the upper back with a lethal dose of 5×10^5 viable B16OVA or B16F-10 cells, or 1×10^6 of viable MC38-OVA cells as indicated.
Tumor Infiltration: To assess the frequency of tumor-infiltrating lymphocytes (TIL) in immunized mice, tumors were harvested when their size reached 1.8-2 cm. Tumors were dissociated using the tumor Dissociation Kit (Milteny Biotec) and the gentleMACS dissociator following the manufacturer's protocol. […] CD45^+ cells were positively selected using CD45 microbeads (Milteny Biotec), and T cell infiltration was assessed by flow cytometry. […]

In the case of lipopolysaccharide [LPS], in the test with OT-I and OT-II T cells, the “IL-10 and IL-13 release by OT-II T cells” value is “large amounts of IL-10, and IL-13”. Also, the “TH1/TH2 phenotype of the T cell response” value in test [1] (immunization with OVA) is “mixed TH1 and TH2 phenotype”. For the same compound, the “TNFα and IL-1β release by LPS-activated BMDCs” value with BMDCs is “release TNFα but not IL-1β”.
Regarding `CCCCCCCCCCCCCCCC(=O)OC[C@H](COP(=O)([O-])OCC[N+](C)(C)C)OC(=O)CCCC(=O)O` [PGPC, [(2R)-2-(4-carboxybutanoyloxy)-3-hexadecanoyloxypropyl] 2-(trimethylazaniumyl)ethyl phosphate], the “effector and memory T cell generation in dLN” value in test [1] (7 and 40 days post-immunization with OVA (+LPS), CD44/CD62L flow cytometry) was “enhance the magnitude of effector and memory T cell generation”. In test [1] (WT mice, 7 days post immunization with OVA, re-stimulated 7 days with OVA-loaded BMDC), the “antigen-specific tetramer+IFNγ+ T cell responses” value is reported as “highest frequency of tetramer+IFNγ+ responses”. The “protection against B16OVA tumor challenge” value in the test on B16OVA cells was “confers optimal protection”.
